Experimental data from patent US8003327B2, “Methods of screening for risk of proliferative disease and methods for the treatment of proliferative disease” (Duke University, priority 1998, dated 2011).
In brackets after ≈: the same amount, converted by molar mass.

Tests used:
NT2 cells [1] = assay: DNA fragmentation (low molecular weight DNA ladder) in NT2 cells; assay type: cell-based
Method: FIG. 4. […] NT2 cells were transiently transfected with CLN3 (lanes 1, 3 and 5) or vector alone (lanes 2, 4 and 6) followed by treatment with either 10 μg/ml etoposide (lanes 1 and 2) or 500 nM staurosporine (lanes 3 and 4) or 1 μg/ml vincristine (lanes 5 and 6). Low molecular weight DNA was extracted and analyzed on a 2% agarose gel in Tris-Borate-EDTA buffer (Rosenbaum et al, Ann. Neurol. 36, 864-870 (1994)).
A hallmark of apoptosis is the fragmentation of nuclear DNA into nucleosome-sized fragments creating a DNA ladder of 180 bp and its concatamers (Arends M J, et al., Am. J. Pathol. 136: 593-608 (1990)). […] NT2 cells were transiently transfected with CLN3 or vector alone, then treated with the drugs prior to the extraction of low molecular weight DNA (Rosenbaum D M, et al., Ann. Neurol. 36: 864-870 (1994)).

NT2 cells [2] = assay: Dose response of NT2 cell viability to drugs, trypan blue method; assay type: cell-based; details: for IC50: Homo sapiens, 18 hours, trypan blue, read-out: dose resulting in 50% killing at 18 hours
Method: Drug treatments: Dose response curves were established for etoposide, vincristine and staurosporine in NT2 cells (FIGS. 3Ai, 3Bi and 3Ci). […] Survival represents the number of drug treated viable cells divided by the number of untreated viable cells and expressed as a percentage. Protection is calculated as the difference in survival between CLN3-overexpressing cells and the vector-transfected control cells. The degree of protection is calculated as the difference in survival between treated CLN3-overexpressing and vector control cells divided by the survival of treated vector control cells. The values are from three separate experiments, each of which was carried out in triplicate (FIGS. 3Aii, 3Bii, and 3Cii).

Compound	DNA fragmentation in NT2 cells caused by drug (NT2 cells [1])	IC50 (NT2 cells [2]; NT2 cells) [µg/mL]	apoptosis induction in NT2 cells (NT2 cells [2]; increasing concentrations, counted at 6, 12, 18 and 24 hour)	optimal concentration for causing apoptosis in NT2 cells (NT2 cells [2]; NT2 cells, dose response curves) [nM]
CC[C@]1(O)C[C@H]2CN(CCc3c([nH]c4ccccc34)[C@@](C(=O)OC)(c3cc4c(cc3OC)N(C=O)[C@H]3[C@@](O)(C(=O)OC)[C@H](OC(C)=O)[C@]5(CC)C=CCN6CC[C@]43[C@@H]65)C2)C1 [vincristine]	cause DNA fragmentation	1 (≈ 1.21 µM)		
CCCCCCCCCCCCC/C=C/[C@@H](O)[C@H](CO)NC(C)=O [C2-ceramide]			effective apoptotic agent	
COc1cc([C@@H]2c3cc4c(cc3[C@@H](O[C@@H]3O[C@@H]5CO[C@@H](C)O[C@H]5[C@H](O)[C@H]3O)[C@H]3COC(=O)[C@H]23)OCO4)cc(OC)c1O [etoposide]	cause DNA fragmentation	10 (≈ 17 µM)		
CN[C@@H]1C[C@H]2O[C@@](C)([C@@H]1OC)n1c3ccccc3c3c4c(c5c6ccccc6n2c5c31)C(=O)NC4 [staurosporine]	cause DNA fragmentation			500
